Target: T1, HEK cells stably transfected with tetracycline inducible hNR1 and hNR2A (Homo sapiens, UniProt Q05586+Q12879)
T1 construct: expressed in transfected cells; host or cells: HEK cells, stably transfected, tetracycline/doxycycline inducible
Test: Assay 1: Cell-Based Assay, cytosolic calcium response to positive allosteric modulators (with 30 μM glycine and 300 nM L-glutamate, EC30)
Details: for EC50: cytosolic calcium response, with 30 μM glycine and 300 nM L-glutamate (EC30), — = no plateau was reached; for Max %: responses scaled relative to 100 μM L-glutamate maximal response (100%) and 0 μM L-glutamate (0%)
In short: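 Cells induced 24 h with 7.5 μg mL^−1 doxycycline plus 500 μM (+)-ketamine, loaded 60 min at 37 °C with calcium dye in Mg-free HBSS (1.8 mM Ca, probenecid, 10 μM (+)-ketamine, pH 7.15). Peak RFU over 5 min after compound addition, scaled to 100 μM L-glutamate (100%) and 0 μM (0%); four-parameter Hill fit for EC50, max % if no plateau.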

T1 sequence (Q12879 23-1464, other chains not shown): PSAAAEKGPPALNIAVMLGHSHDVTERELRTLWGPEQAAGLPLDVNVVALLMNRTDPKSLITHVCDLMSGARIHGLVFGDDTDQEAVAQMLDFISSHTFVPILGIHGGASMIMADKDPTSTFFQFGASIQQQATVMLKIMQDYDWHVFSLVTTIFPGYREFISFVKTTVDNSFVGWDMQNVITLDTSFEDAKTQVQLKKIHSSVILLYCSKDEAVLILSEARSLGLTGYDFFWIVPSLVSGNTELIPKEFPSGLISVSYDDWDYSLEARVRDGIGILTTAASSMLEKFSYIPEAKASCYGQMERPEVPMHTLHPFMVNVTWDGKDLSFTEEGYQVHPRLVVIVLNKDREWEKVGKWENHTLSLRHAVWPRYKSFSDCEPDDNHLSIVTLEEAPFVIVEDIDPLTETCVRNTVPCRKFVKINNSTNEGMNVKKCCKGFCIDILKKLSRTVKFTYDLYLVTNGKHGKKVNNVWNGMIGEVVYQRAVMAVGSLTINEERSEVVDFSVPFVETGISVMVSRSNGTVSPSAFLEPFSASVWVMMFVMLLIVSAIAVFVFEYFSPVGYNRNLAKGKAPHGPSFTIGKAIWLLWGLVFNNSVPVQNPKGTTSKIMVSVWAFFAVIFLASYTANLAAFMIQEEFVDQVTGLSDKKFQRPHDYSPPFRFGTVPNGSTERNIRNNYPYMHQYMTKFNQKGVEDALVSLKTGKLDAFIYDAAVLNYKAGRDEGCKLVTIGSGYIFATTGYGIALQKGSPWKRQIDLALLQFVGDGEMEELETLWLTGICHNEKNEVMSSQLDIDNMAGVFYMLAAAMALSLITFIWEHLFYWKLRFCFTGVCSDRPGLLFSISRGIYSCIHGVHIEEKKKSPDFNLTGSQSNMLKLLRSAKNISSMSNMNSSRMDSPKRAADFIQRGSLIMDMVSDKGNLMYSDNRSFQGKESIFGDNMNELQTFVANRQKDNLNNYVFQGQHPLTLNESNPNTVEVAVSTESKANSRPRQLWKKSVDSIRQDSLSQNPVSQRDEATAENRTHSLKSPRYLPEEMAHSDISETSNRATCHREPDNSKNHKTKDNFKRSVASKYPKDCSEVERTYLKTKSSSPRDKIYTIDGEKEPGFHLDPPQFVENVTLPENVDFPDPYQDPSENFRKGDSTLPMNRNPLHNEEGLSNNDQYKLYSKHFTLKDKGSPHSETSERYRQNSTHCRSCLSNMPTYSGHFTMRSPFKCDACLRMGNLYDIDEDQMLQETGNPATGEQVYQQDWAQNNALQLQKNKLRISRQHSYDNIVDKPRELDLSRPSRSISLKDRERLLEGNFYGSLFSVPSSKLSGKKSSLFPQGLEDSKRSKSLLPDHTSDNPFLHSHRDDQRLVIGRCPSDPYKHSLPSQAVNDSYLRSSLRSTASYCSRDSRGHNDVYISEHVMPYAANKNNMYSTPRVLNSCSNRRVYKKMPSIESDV

| SMILES | EC50 (Table 2) [nM] | Max % (Table 2) [%] | EC50 (Table 3) [nM] |
| --- | --- | --- | --- |
| Cc1sc2nc(Cn3nc(C(F)F)cc3C)cc(=O)n2c1[C@@H]1C[C@H]1CO (relative stereo) [Example 15.22, 7[[3-(difluoromethyl)-5-methyl-pyrazol-1-yl]methyl]-3-[trans-2-(hydroxymethyl)cyclopropyl]-2-methyl-thiazolo[3,2-a]pyrimidin-5-one] | 704 | 149 | – |
| CCNC(=O)c1c(C)sc2nc(Cn3nc(C)cc3Cl)cc(=O)n12 [compound 20, 7-[(5-chloro-3-methyl-pyrazol-1-yl)methyl]-N-ethyl-2-methyl-5-oxo-thiazolo[3,2-a]pyrimidine-3-carboxamide] | – | – | 10200 |
| CCNC(=O)c1c(C)sc2nc(Cn3nc(Cl)cc3Cl)cc(=O)n12 [compound 164, 7-[(3,5-dichloropyrazol-1-yl)methyl]-N-ethyl-2-methyl-5-oxo-thiazolo[3,2-a]pyrimidine-3-carboxamide] | – | – | 562 |
| CCNC(=O)c1c(C)sc2nc(Cc3cccc(OC)c3F)cc(=O)n12 [compound 5, N-ethyl-7-[(2-fluoro-3-methoxy-phenyl)methyl]-2-methyl-5-oxo-thiazolo[3,2-a]pyrimidine-3-carboxamide] | – | – | 15100 |
| CCNC(=O)c1c(C(F)(F)F)sc2nc(Cn3nc(C(F)(F)F)cc3C)cc(=O)n12 [compound 45, N-ethyl-7-[[5-methyl-3-(trifluoromethyl)pyrazol-1-yl]methyl]-5-oxo-2-(trifluoromethyl)thiazolo[3,2-a]pyrimidine-3-carboxamide] | – | – | 1250 |
| CCN(Cc1cc(=O)n2c3c(sc2n1)CCC3C#N)c1ccc(F)cc1 (stereo not shown) [Example 8.12, 6-[(N-ethyl-4-fluoro-anilino)methyl]-8-oxo-2,3-dihydro-1H-cyclopenta[3,4]thiazolo[1,4-a]pyrimidine-1-carbonitrile] | 385 | 161 | – |
| CCNC(=O)c1c(C)sc2nc(Cc3cc(F)c(F)cc3CC)cc(=O)n12 [Example 21.19, N-ethyl-7-(2-ethyl-4,5-difluorobenzyl)-2-methyl-5-oxo-5H-thiazolo[3,2-a]pyrimidine-3-carboxamide] | 7400 | 145 | – |
| O=c1cc(Cn2nc(C(F)(F)F)cc2Cl)nc2sc(C(F)(F)F)c(N3CCC3)n12 [compound 206, 3-(Azetidin-1-yl)-7-[[5-chloro-3-(trifluoromethyl)pyrazol-1-yl]methyl]-2-(trifluoromethyl)thiazolo[3,2-a]pyrimidin-5-one] | – | – | 7190 |
| CCN(Cc1cc(=O)n2c(-c3ccc(=O)[nH]c3)c(C)sc2n1)c1ccc(F)cc1 [Example 5.50, 7-((ethyl(4-fluorophenyl)amino)methyl)-2-methyl-3-(6-oxo-1,6-dihydropyridin-3-yl)-5H-thiazolo[3,2-a]pyrimidin-5-one] | – | 96.8 | – |
| Cc1cc(C)n(Cc2nc3sc(C)c([C@@H]4C[C@H]4CO)n3c(=O)c2F)n1 (relative stereo) [Example 15.18, 7-((3,5-dimethyl-1H-pyrazol-1-yl)methyl)-6-fluoro-3-(trans-2-(hydroxymethyl)cyclopropyl)-2-methyl-5H-thiazolo[3,2-a]pyrimidin-5-one] | 10500 | 143 | – |
| CCNC(=O)c1c(C)sc2nc(Cc3ccc(F)c(C#N)c3)cc(=O)n12 [Example 21.37, 7-(3-cyano-4-fluorobenzyl)-N-ethyl-2-methyl-5-oxo-5H-thiazolo[3,2-a]pyrimidine-3-carboxamide] | – | 68.4 | – |
| CCNC(=O)c1c(OCC(F)(F)F)sc2nc(Cn3nc(C(F)(F)F)cc3Cl)cc(=O)n12 [compound 174, 7-[[5-chloro-3-(trifluoromethyl)pyrazol-1-yl]methyl]-N-ethyl-5-oxo-2-(2,2,2-trifluoroethoxy)thiazolo[3,2-a]pyrimidine-3-carboxamide] | – | – | 1670 |
| Cc1sc2nc(Cc3cccc(C(F)(F)F)c3F)cc(=O)n2c1Cc1ncc[nH]1 [compound 81, 7-[[2-fluoro-3-(trifluoromethyl)phenyl]methyl]-3-(1H-imidazol-2-ylmethyl)-2-methyl-thiazolo[3,2-a]pyrimidin-5-one] | – | – | 52000 |
| CCNC(=O)Cc1c(C)sc2nc(Cc3cccc(C(F)(F)F)c3F)cc(=O)n12 [compound 71, N-ethyl-2-[7-[[2-fluoro-3-(trifluoromethyl)phenyl]methyl]-2-methyl-5-oxo-thiazolo[3,2-a]pyrimidin-3-yl]acetamide] | – | – | 1370 |
| COc1sc2nc(Cn3nc(C(F)(F)F)cc3Cl)cc(=O)n2c1C(C)=O [compound 244, 3-Acetyl-7-[[5-chloro-3-(trifluoromethyl)pyrazol-1-yl]methyl]-2-methoxy-thiazolo[3,2-a]pyrimidin-5-one] | – | – | 392 |
| CCNC(=O)c1c(C)sc2nc(Cn3nc(C4CC4)cc3Cl)cc(=O)n12 [compound 23, 7-[(5-chloro-3-cyclopropyl-pyrazol-1-yl)methyl]-N-ethyl-2-methyl-5-oxo-thiazolo[3,2-a]pyrimidine-3-carboxamide] | – | – | 3480 |

| SMILES | EC50 (Table 2) [nM] | Max % (Table 2) [%] | EC50 (Table 3) [nM] |
| --- | --- | --- | --- |
| CCNC(=O)c1c(C)sc2nc(Cc3cccc4c3cnn4C)cc(=O)n12 [Example 21.38, N-ethyl-2-methyl-7-((1-methyl-1H-indazol-4-yl)methyl)-5-oxo-5H-thiazolo[3,2-a]pyrimidine-3-carboxamide] | – | 66.5 | – |
| Cc1sc2nc(COc3ccc(F)cc3)cc(=O)n2c1-c1ccn[nH]1 [Example 4.15, 7-((4-fluorophenoxy)methyl)-2-methyl-3-(1H-pyrazol-5-yl)-5H-thiazolo[3,2-a]pyrimidin-5-one] | 13900 | 50 | – |
| CCNC(=O)c1c(C)sc2nc(CN(CC)c3ccc(Cl)cn3)cc(=O)n12 [compound 152, 7-[[(5-chloro-2-pyridyl)-ethyl-amino]methyl]-N-ethyl-2-methyl-5-oxo-thiazolo[3,2-a]pyrimidine-3-carboxamide] | – | – | 2850 |
| CCNC(=O)c1c(C2CC2)sc2nc(Cn3nc(C(F)(F)F)cc3C3CC3)cc(=O)n12 [Example 16.6, 2-cyclopropyl-7-((5-cyclopropyl-3-(trifluoromethyl)-1H-pyrazol-1-yl)methyl)-N-ethyl-5-oxo-5H-thiazolo[3,2-a]pyrimidine-3-carboxamide] | 5500 | 140 | – |
| CCNC(=O)c1c(C)sc2nc(Cc3cccc(C(F)(F)F)c3F)c(F)c(=O)n12 [compound 13, N-ethyl-6-fluoro-7-[[2-fluoro-3-(trifluoromethyl)phenyl]methyl]-2-methyl-5-oxo-thiazolo[3,2-a]pyrimidine-3-carboxamide] | – | – | 858 |
| C=Cc1c(C)sc2nc(CN(CC)c3ccc(F)cc3)cc(=O)n12 [Example 5.53, 7-((ethyl(4-fluorophenyl)amino)methyl)-2-methyl-3-vinyl-5H-thiazolo[3,2-a]pyrimidin-5-one] | 1300 | 153 | – |
| Cc1sc2nc(Cn3nc(C(F)(F)F)cc3Cl)cc(=O)n2c1-c1cncc(F)c1 [compound 138, 7-[[5-chloro-3-(trifluoromethyl)pyrazol-1-yl]methyl]-3-(5-fluoro-3-pyridyl)-2-methyl-thiazolo[3,2-a]pyrimidin-5-one] | – | – | 775 |
| CCN(Cc1cc(=O)n2c3c(sc2n1)CCC3CO)c1ccc(F)cc1 (stereo not shown) [Example 8.5, 6-[(N-ethyl-4-fluoro-anilino)methyl]-1-(hydroxymethyl)-2,3-dihydro-1H-cyclopenta[3,4]thiazolo[1,4-a]pyrimidin-8-one] | 16900 | 114 | – |
| Cc1sc2nc(COc3ccc(F)cc3F)cc(=O)n2c1[C@@H]1C[C@H]1CO (relative stereo) [Example 4.6, 7-(2,4-Difluorophenoxymethyl)-3-[trans-2-(hydroxymethyl)cyclopropyl]-2-methyl-5H-[1,3]thiazolo[3,2-a]pyrimidin-5-one] | 7700 | 128 | – |
| CNC(=O)c1c(C)sc2nc(Cc3cc(C(F)(F)F)ccc3Cl)cc(=O)n12 [compound 14, 7-[[2-chloro-5-(trifluoromethyl)phenyl]methyl]-N,2-dimethyl-5-oxo-thiazolo[3,2-a]pyrimidine-3-carboxamide] | – | – | 1560 |
| CNC(=O)c1c(C)sc2nc(Cc3cc(F)ccc3F)cc(=O)n12 [Example 21.53, 7-[(2,5-difluorophenyl)methyl]-N,2-dimethyl-5-oxo-thiazolo[3,2-a]pyrimidine-3-carboxamide] | – | 49 | – |
| CCN(Cc1cc(=O)n2c(CO)c(C)sc2n1)c1cccc(C#N)c1 [Example 10.23, 3-(ethyl((3-(hydroxymethyl)-2-methyl-5-oxo-5H-thiazolo[3,2-a]pyrimidin-7-yl)methyl)amino)benzonitrile] | 22900 | 169 | – |
| CCC(O)c1c(C)sc2nc(COc3ccc(F)cc3)cc(=O)n12 (stereo not shown) [Example 2.2, 7-((4-fluorophenoxy)methyl)-3-(1-hydroxypropyl)-2-methyl-5H-thiazolo[3,2-a]pyrimidin-5-one] | – | 96.5 | – |
| CCNC(=O)c1c(C(F)(F)F)sc2nc(CN(CC)c3ccc(F)cn3)cc(=O)n12 [compound 205, N-ethyl-7-[[ethyl-(5-fluoro-2-pyridyl)amino]methyl]-5-oxo-2-(trifluoromethyl)thiazolo[3,2-a]pyrimidine-3-carboxamide] | – | – | 1120 |
| Cc1sc2nc(Cc3cc(C#N)ccc3F)cc(=O)n2c1[C@@H]1C[C@H]1CO (relative stereo) [Example 20.7, 4-fluoro-3-((3-(trans-2-(hydroxymethyl)cyclopropyl)-2-methyl-5-oxo-5H-thiazolo[3,2-a]pyrimidin-7-yl)methyl)benzonitrile] | 10800 | 137 | – |
| CC1CC1c1c(C(F)(F)F)sc2nc(Cn3nc(C(F)(F)F)cc3Cl)cc(=O)n12 (stereo not shown) [compound 199, 7-[[5-chloro-3-(trifluoromethyl)pyrazol-1-yl]methyl]-3-(2-methylcyclopropyl)-2-(trifluoromethyl)thiazolo[3,2-a]pyrimidin-5-one] | – | – | 1390 |

— patent US9988400B2 (Genentech, Inc., priority 2013, dated 2018)
